Experimental data published in patent US12655116B2, “Substituted isophthalic acid diamides” (Bayer Aktiengesellschaft, priority 2020, dated 2026).

Key:
AMARE [1] = assay: Post-emergence herbicidal action against AMARE; type: in vivo, Amaranthus retroflexus; details: 20 g/ha, visual assessment about 3 weeks after treatment, 100% = plants have died, 0% = like control plants; for pest or weed control at 20 g/ha: Amaranthus retroflexus, 504 h
How it was run: (§1)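 Sandy loam, greenhouse; treatment 2–3 weeks after sowing, one-leaf stage. Aqueous suspension or emulsion from WP/EC sprayed on foliage (600–800 l/ha, 0.2% wetting agent). Readout: visual % action, ~3 weeks.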

ABUTH [2] = assay: Pre-emergence herbicidal action against ABUTH; type: in vivo, Abutilon theophrasti; details: for pest or weed control at 80 g/ha / pest or weed control at 20 g/ha: Abutilon theophrasti, 504 h; for pest or weed control at 80 g/ha / Pre-emergence action against ABUTH (herbicidal activity): scored visually after 3 weeks vs untreated controls (100% = plants have died, 0% = like control plants), 80 g/ha; for pest or weed control at 20 g/ha / Pre-emergence action against ABUTH (herbicidal activity in percent): dosage 20 g/ha, scored visually after 3 weeks vs untreated controls, 100% = plants have died, 0% = like control plants; for pest or weed control at 20 g/ha: read-out: Pre-emergence action against ABUTH (herbicidal activity in percent)
How it was run: (§2)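 Seeds sown in sandy loam, soil-covered; compound sprayed on soil surface pre-emergence. Application: WP/EC, 600–800 l/ha, 0.2% wetting agent. Readout: visual % damage at 3 weeks.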

AMARE [3] = assay: Pre-emergence herbicidal action against AMARE; type: in vivo, Amaranthus retroflexus; details: for pest or weed control at 20 g/ha / pest or weed control at 80 g/ha: Amaranthus retroflexus, 504 h
How it was run: as §2

PHBPU [4] = assay: Pre-emergence herbicidal action against PHBPU; type: in vivo, Pharbitis purpurea; details: dosage 80 g/ha; for pest or weed control at 80 g/ha: Ipomoea purpurea, 504 h
How it was run: as §2

VERPE = assay: Pre-emergence herbicidal action against VERPE; type: in vivo, Veronica persica; details: for pest or weed control at 80 g/ha / Pre-emergence action against VERPE in %: dosage 80 g/ha
How it was run: as §2

MATIN [5] = assay: Pre-emergence herbicidal action against MATIN; type: in vivo, Matricaria inodora; details: for pest or weed control at 20 g/ha / pest or weed control at 80 g/ha: Tripleurospermum inodorum, 504 h
How it was run: as §2

POLCO = assay: Pre-emergence herbicidal action against POLCO; type: in vivo, Polygonum convolvulus; details: dosage 80 g/ha; for pest or weed control at 80 g/ha: Fallopia convolvulus, 504 h
How it was run: as §2

ECHCG [6] = assay: Post-emergence herbicidal action against ECHCG; type: in vivo, Echinochloa crus-galli
How it was run: as §1

ECHCG [7] = assay: Pre-emergence herbicidal action against ECHCG; type: in vivo, Echinochloa crus-galli
How it was run: as §2

ALOMY = assay: Pre-emergence herbicidal action against ALOMY; type: in vivo, Alopecurus myosuroides; details: pre-emergence
How it was run: as §2

VIOTR = assay: Pre-emergence herbicidal action against VIOTR; type: in vivo, Viola tricolor
How it was run: as §2

SETVI [8] = assay: Pre-emergence herbicidal action against SETVI; type: in vivo, Setaria viridis; details: dosage 80 g/ha
How it was run: as §2

AVEFA = assay: Pre-emergence herbicidal action against AVEFA; type: in vivo, Avena fatua; details: Avena fatua, 504 h, pre-emergence
How it was run: as §2

ABUTH [9] = assay: Post-emergence herbicidal action against ABUTH; type: in vivo, Abutilon theophrasti; details: dosage 20 g/ha, visual assessment about 3 weeks after treatment vs untreated controls
How it was run: as §1

PHBPU [10] = assay: Post-emergence herbicidal action against PHBPU; type: in vivo, Pharbitis purpurea; details: dosage 20 g/ha
How it was run: as §1

DIGSA [11] = assay: Pre-emergence herbicidal action against DIGSA; type: in vivo, Digitaria sanguinalis
How it was run: as §2

MATIN [12] = assay: Post-emergence herbicidal action against MATIN; type: in vivo, Matricaria inodora; details: dosage 20 g/ha
How it was run: as §1

SETVI [13] = assay: Post-emergence herbicidal action against SETVI; type: in vivo, Setaria viridis; details: dosage 20 g/ha
How it was run: as §1

DIGSA [14] = assay: Post-emergence herbicidal action against DIGSA; type: in vivo, Digitaria sanguinalis; details: 20 g/ha
How it was run: as §1

[15] = 20 g/ha, scored visually after 3 weeks vs untreated controls, 100% = plants have died, 0% = like control plants
[16] = 80 g/ha, scored visually after 3 weeks vs untreated controls, 100% = plants have died, 0% = like control plants
[17] = 80 g/ha, scored visually after 3 weeks vs untreated controls (100% = plants have died, 0% = like control plants)

Cn1nnnc1NC(=O)c1ccc(C(F)F)c(C(=O)Nc2ccccc2)c1Cl [Example 1-161]
pest or weed control at 20 g/ha (AMARE [1]): 90% | pest or weed control at 80 g/ha (ABUTH [2]): 90% | pest or weed control at 20 g/ha (ABUTH [2]): 80% | pest or weed control at 20 g/ha (AMARE [3]; [15]): 100% | pest or weed control at 80 g/ha (AMARE [3]; [16]): 100% | pest or weed control at 80 g/ha (PHBPU [4]): 80% | pest or weed control at 20 g/ha (VERPE; Veronica persica, 504 h, dosage 20 g/ha): 80% | pest or weed control at 80 g/ha (VERPE; Veronica persica, 504 h): 90% | pest or weed control at 20 g/ha (MATIN [5]; dosage 20 g/ha): 90% | pest or weed control at 80 g/ha (MATIN [5]; dosage 80 g/ha): 100% | pest or weed control at 80 g/ha (POLCO): 80%

Cn1nnnc1NC(=O)c1ccc(C(F)(F)F)c(C(=O)NCC(F)(F)F)c1Br [Example 1-211]
pest or weed control at 20 g/ha (AMARE [1]): 90% | pest or weed control at 80 g/ha (ABUTH [2]): 100% | pest or weed control at 20 g/ha (ABUTH [2]): 100% | pest or weed control at 5 g/ha (ECHCG [6]; Echinochloa crus-galli, 504 h, dosage 5 g/ha): 80% | pest or weed control at 20 g/ha (ECHCG [6]; Echinochloa crus-galli, 504 h, dosage 20 g/ha): 90% | pest or weed control at 20 g/ha (AMARE [3]; [15]): 100% | pest or weed control at 80 g/ha (AMARE [3]; [16]): 100% | pest or weed control at 20 g/ha (ECHCG [7]; Echinochloa crus-galli, 504 h, 20 g/ha): 90% | pest or weed control at 80 g/ha (ECHCG [7]; Echinochloa crus-galli, 504 h, 80 g/ha): 100% | pest or weed control at 80 g/ha (ALOMY; Alopecurus myosuroides, 504 h, 80 g/ha, scored visually after 3 weeks vs untreated controls (100% = plants have died, 0% = like control plants)): 100% | pest or weed control at 20 g/ha (ALOMY; Alopecurus myosuroides, 504 h, 20 g/ha, scored visually after 3 weeks, 100% = plants have died, 0% = like control plants): 90% | pest or weed control at 80 g/ha (VIOTR; Viola tricolor, 504 h, dosage 80 g/ha): 100% | pest or weed control at 80 g/ha (PHBPU [4]): 80% | pest or weed control at 80 g/ha (SETVI [8]; Setaria viridis, 504 h): 100% | pest or weed control at 80 g/ha (VERPE; Veronica persica, 504 h): 100% | pest or weed control at 20 g/ha (MATIN [5]; dosage 20 g/ha): 90% | pest or weed control at 80 g/ha (MATIN [5]; dosage 80 g/ha): 100% | pest or weed control at 80 g/ha (POLCO): 90% | pest or weed control at 80 g/ha (AVEFA; 80 g/ha): 90% | pest or weed control at 20 g/ha (AVEFA; 20 g/ha, scored visually after 3 weeks, 100% = plants have died, 0% = like control plants): 80% | pest or weed control at 20 g/ha (ABUTH [9]; Abutilon theophrasti, 504 h): 80%

CCn1nnnc1NC(=O)c1ccc(C(F)(F)F)c(C(=O)NCCOC)c1Cl [Example 2-138]
Post-emergence action at 20 g/ha against AMARE in % (AMARE [1]): 90% | Pre-emergence action against ABUTH (herbicidal activity) (ABUTH [2]): 100% | Pre-emergence action against ABUTH (herbicidal activity in percent) (ABUTH [2]): 80% | Post-emergence action against ECHCG in % (ECHCG [6]; dosage 5 g/ha): 80% | Post-emergence action against ECHCG in % (ECHCG [6]; dosage 20 g/ha): 90% | Pre-emergence action against AMARE in % (AMARE [3]; [15]): 100% | Pre-emergence action against AMARE in % (AMARE [3]; [17]): 100% | Pre-emergence action against ECHCG in % (ECHCG [7]; 80 g/ha): 90% | Pre-emergence action against ALOMY (herbicidal activity) (ALOMY; [17]): 90% | Pre-emergence action against VIOTR in % (VIOTR; dosage 20 g/ha): 90% | Pre-emergence action against VIOTR in % (VIOTR; dosage 80 g/ha): 100% | Post-emergence action against PHBPU in % (PHBPU [10]): 80% | Pre-emergence action against PHBPU in % (PHBPU [4]): 80% | Pre-emergence action against SETVI in % (SETVI [8]): 80% | Pre-emergence action against DIGSA in % (DIGSA [11]; dosage 20 g/ha): 100% | Pre-emergence action against DIGSA in % (DIGSA [11]; dosage 80 g/ha): 100% | Pre-emergence action against VERPE in % (VERPE): 100% | Pre-emergence action against MATIN in % (MATIN [5]; dosage 20 g/ha): 90% | Pre-emergence action against MATIN in % (MATIN [5]; dosage 80 g/ha): 100% | Pre-emergence action against POLCO in % (POLCO): 90%

CCn1nnnc1NC(=O)c1ccc(C(F)F)c(C(=O)NC2CCC2)c1Cl [Example 2-164]
Post-emergence action at 20 g/ha against AMARE in % (AMARE [1]): 90% | Pre-emergence action against ABUTH (herbicidal activity) (ABUTH [2]): 100% | Pre-emergence action against ABUTH (herbicidal activity in percent) (ABUTH [2]): 90% | Post-emergence action against ECHCG in % (ECHCG [6]; dosage 20 g/ha): 80% | Pre-emergence action against AMARE in % (AMARE [3]; [15]): 100% | Pre-emergence action against AMARE in % (AMARE [3]; [17]): 100% | Pre-emergence action against ECHCG in % (ECHCG [7]; 80 g/ha): 80% | Pre-emergence action against VIOTR in % (VIOTR; dosage 80 g/ha): 100% | Pre-emergence action against PHBPU in % (PHBPU [4]): 100% | Pre-emergence action against SETVI in % (SETVI [8]): 80% | Pre-emergence action against DIGSA in % (DIGSA [11]; dosage 80 g/ha): 100% | Pre-emergence action against VERPE in % (VERPE): 100% | Post-emergence action against MATIN in % (MATIN [12]): 80% | Pre-emergence action against MATIN in % (MATIN [5]; dosage 20 g/ha): 100% | Pre-emergence action against MATIN in % (MATIN [5]; dosage 80 g/ha): 100% | Pre-emergence action against POLCO in % (POLCO): 90%

CCCNC(=O)c1c(C(F)F)ccc(C(=O)Nc2nnc(C)o2)c1Cl [Example 6-259]
Post-emergence action at 20 g/ha against AMARE in % (AMARE [1]): 100% | Pre-emergence action against ABUTH (herbicidal activity) (ABUTH [2]): 100% | Pre-emergence action against ABUTH (herbicidal activity in percent) (ABUTH [2]): 90% | Post-emergence action against ECHCG in % (ECHCG [6]; dosage 5 g/ha): 80% | Post-emergence action against ECHCG in % (ECHCG [6]; dosage 20 g/ha): 90% | Pre-emergence action against AMARE in % (AMARE [3]; [15]): 100% | Pre-emergence action against AMARE in % (AMARE [3]; [17]): 100% | Pre-emergence action against ECHCG in % (ECHCG [7]; 80 g/ha): 100% | Pre-emergence action against ALOMY (herbicidal activity) (ALOMY; [17]): 80% | Pre-emergence action against VIOTR in % (VIOTR; dosage 80 g/ha): 80% | Post-emergence action against SETVI in % (SETVI [13]): 90% | Pre-emergence action against PHBPU in % (PHBPU [4]): 80% | Pre-emergence action against SETVI in % (SETVI [8]): 100% | Pre-emergence action against DIGSA in % (DIGSA [11]; dosage 20 g/ha): 100% | Pre-emergence action against DIGSA in % (DIGSA [11]; dosage 80 g/ha): 100% | Pre-emergence action against MATIN in % (MATIN [5]; dosage 20 g/ha): 90% | Pre-emergence action against MATIN in % (MATIN [5]; dosage 80 g/ha): 100% | Pre-emergence action against POLCO in % (POLCO): 90% | Post-emergence action against DIGSA (DIGSA [14]): 90% | Post-emergence action against ABUTH in % (ABUTH [9]): 80%
